# Reference: patent US10221163B2 (priority 2015, dated 2019)
# Legend:
# IMP-1 = IMP-1 (Serratia marcescens, UniProt P52699); test: biochemical; assay type: biochemical; settings: fluorescence assay, CCF2-FA substrate, 2 pM enzyme, 2 hours at 25° C.; read-out: IMP-1 IC50
# Description: (§1) Enzyme Activity: Determination of IC50
# (§2) The Class B enzyme activities were measured in the presence of the test inhibitor in a fluorescence assay against a commercially available substrate consisting of a cephalosporin core linking 7-hydroxycoumarin to fluorescein (CCF2-FA). […] In a 384-well microplate, the test inhibitor was incubated with the metallo-β-lactamase enzyme and the substrate for 2 hours at 25° C. […] The IC50 value was determined from semi-logarithmic plots of enzyme inhibition versus inhibitor concentration, with a curve generated using a 4-parameter fit.
# NDM-1 = NDM-1 (Klebsiella pneumoniae, UniProt C7C422); test: biochemical; assay type: biochemical; settings: fluorescence assay, CCF2-FA substrate, 1 pM enzyme, 2 hours at 25° C.; read-out: NDM-1 IC50
# Chain of NDM-1 (C7C422 whole entry, looked up, species assumed): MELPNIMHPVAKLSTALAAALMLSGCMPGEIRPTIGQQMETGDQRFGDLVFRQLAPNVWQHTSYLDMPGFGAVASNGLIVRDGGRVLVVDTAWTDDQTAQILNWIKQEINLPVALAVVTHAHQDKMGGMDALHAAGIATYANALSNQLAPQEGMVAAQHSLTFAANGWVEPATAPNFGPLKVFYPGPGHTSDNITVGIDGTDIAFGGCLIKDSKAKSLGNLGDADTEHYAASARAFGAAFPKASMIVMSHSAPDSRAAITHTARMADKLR
# Description: as §1, §2
# [1] = system: Pseudomonas aeruginosa efflux+ (MB9798), IMP-1; assay type: cell-based; settings: concentration restoring susceptibility to imipenem at 2 μg/mL in the presence of a class A, C, D serine β-lactamase inhibitor closely related to relebactam
# Text: (§3) The strain background was Pseudomonas aeruginosa PAO1.
# (§4) The strain set was then used as a pair to determine the effect of metallo-β-lactamase inhibitors of Formula I on the MIC of imipenem and/or ceftazidime. A fixed concentration of antibiotic was included in standard microbroth MIC tests, usually at the CLSI (Clinical and Laboratory Standards Institute) breakpoint concentration. A fixed amount of a class A/C beta-lactamase inhibitor was also included to inhibit the resident Pseudomonas AmpC enzyme. A serial titration of the metallo-β-lactamase inhibitor was included and the concentration of metallo-β-lactamase inhibitor which restores susceptibility of the strain to the included antibiotic was recorded. That concentration of metallo-β-lactamase inhibitor was then compared between the two strains to determine the fold difference between the efflux+ (MB9798) and efflux− (MB9799) strains. This was taken as an indication of the extent to which the MBLi is subject to efflux.
# [2] = system: Escherichia coli expressing NDM-1 (CLB30005, CLB30016); assay type: cell-based; settings: with imipenem 1 μg/ml; for Escherichia coli MITC95: NDM-1 strain, 95% inhibition of growth; for Escherichia coli expressing NDM-1 (CLB30016) MITC95: 95% inhibition of bacterial growth
# Description: (§5) Antibiotic Potentiation Activity: Determination of Synergistic Concentration
# (§6) The bacterial strains tested included the clinical strains Escherichia coli expressing NDM-1 (CLB30005, CLB30016), Serratia marcescens expressing IMP-1 (CL5741), and Klebsiella pneumoniae expressing VIM-1 (IHMA599644). Inhibitor activity was measured in the presence and absence of imipenem in a 384-well microplate.
# (§7) The clinical strains CLB30016, CL5741 and IHMA599644 were grown on trypticase soy agar containing 5% sheep's blood. The bacteria on agar plates were incubated at 35° C. with humidity overnight. The following day, individual colonies from each clinical strain were picked and resuspended in 5 ml saline to attain an OD600 of […], for CLB30016, CL5741 and IHMA599644, respectively. These were further diluted 1:100 into 1.1×CAMHB and used to inoculate the test wells as described below.
# (§8) Imipenem in 10 mM 3-(N-morpholino)propanesulfonic acid (MOPS, pH 7) was stored in single use aliquots at −80° C. […] On the day of the assay, 4 μl of antibiotic was added to 45 ul of bacteria followed by 1 μl of test compound and mixed by pipetting and with an orbital shaker. The concentration of antibiotic used in the assay was 1 μg/ml. Microplates were covered and incubated at 35° C. for 22 hours to 24 hours. At the end of the incubation, absorbance was determined using a spectrophotometer.
# [3] = system: Klebsiella pneumoniae expressing VIM-1 (IHMA599644); assay type: cell-based; settings: for Klebsiella pneumoniae MITC95: VIM-1 strain IHMA599644, with imipenem 1 μg/ml, 95% inhibition of growth; for Klebsiella pneumoniae expressing VIM-1 (IHMA599644) MITC95: with imipenem 1 μg/ml, 95% inhibition of bacterial growth
# Description: as §5, §6, §7, §8
# [4] = system: Serratia marcescens expressing IMP-1 (CL5741); assay type: cell-based; settings: for Serratia marcescens MITC95: IMP-1 strain CL5741, with imipenem 1 μg/ml, 95% inhibition of growth; for Serratia marcescens expressing IMP-1 (CL5741) MITC95: with imipenem 1 μg/ml, 95% inhibition of bacterial growth
# Description: as §5, §6, §7, §8
# [5] = system: Pseudomonas aeruginosa efflux− (MB9799), IMP-1; assay type: cell-based; settings: concentration restoring susceptibility to imipenem at 2 μg/mL in the presence of a class A, C, D serine β-lactamase inhibitor closely related to relebactam
# Text: as §3, §4
# Chain of IMP-1 (P52699 whole entry, looked up, species assumed): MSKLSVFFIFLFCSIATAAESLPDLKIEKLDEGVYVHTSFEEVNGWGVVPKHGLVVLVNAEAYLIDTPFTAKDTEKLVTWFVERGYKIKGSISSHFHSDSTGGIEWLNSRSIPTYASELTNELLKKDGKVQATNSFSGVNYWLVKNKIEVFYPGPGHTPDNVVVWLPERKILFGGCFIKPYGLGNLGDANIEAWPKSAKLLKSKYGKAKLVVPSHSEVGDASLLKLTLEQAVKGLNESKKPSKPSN
smiles,measurement,setting,value
"NCC(=O)NC1C=C(c2ccc(S(=O)(=O)N[C@@H]3CCNC3)c(S(N)(=O)=O)c2-c2nn[nH]n2)CCC1 (stereo partly drawn) [Example 269, 2-Amino-N-(4′-(N—((R)-pyrrolidin-3-yl)sulfamoyl)-3′-sulfamoyl-2′-(2H-tetrazol-5-yl)-3,4,5,6-tetrahydro-[1,1′-biphenyl]-3-yl)acetamide]",IC50,IMP-1,4030 pM
same,IC50,NDM-1,1170 pM
same,"P. aeruginosa expressing IMP-1, efflux + (MB9798) MITC95",[1],3.125 µM
same,Escherichia coli MITC95,[2],1.563 µM
same,Klebsiella pneumoniae MITC95,[3],3.125 µM
same,Serratia marcescens MITC95,[4],1.563 µM
same,"P. aeruginosa expressing IMP-1, efflux − (MB9799) MITC95",[5],1.563 µM
"C[N+]1(CCN)CC[C@@H](NS(=O)(=O)c2ccc(-c3cccc4[nH]c(N)nc34)c(-c3nn[nH]n3)c2S(N)(=O)=O)C1.O=CO[O-] (stereo partly drawn) [Example 248, (3R)-3-{[4-(2-amino-1H-1,3-benzodiazol-4-yl)-2-sulfamoyl-3-(2H-1,2,3,4-tetrazol-5-yl)benzene]sulfonamido}-1-(2-aminoethyl)-1-methylpyrrolidin-1-ium; methaneperoxoate]",IC50,IMP-1,147 pM
same,IC50,NDM-1,10.5 pM
same,"P. aeruginosa expressing IMP-1, efflux + (MB9798) MITC95",[1],0.7813 µM
same,Escherichia coli MITC95,[2],0.3906 µM
same,Klebsiella pneumoniae MITC95,[3],0.7813 µM
same,Serratia marcescens MITC95,[4],1.563 µM
same,"P. aeruginosa expressing IMP-1, efflux − (MB9799) MITC95",[5],0.7813 µM
"Nc1nc2c(-c3ccc(S(=O)(=O)NCCN4CCCCC4=O)c(S(N)(=O)=O)c3-c3nnn[nH]3)cccc2s1 [Example 33, 4-(2-amino-1,3-benzothiazol-4-yl)-N1-[2-(2-oxopiperidin-1-yl)ethyl]-3-(1H-tetrazol-5-yl)benzene-1,2-disulfonamide]",IC50,IMP-1,275 pM
same,IC50,NDM-1,73.1 pM
same,"P. aeruginosa expressing IMP-1, efflux + (MB9798) MITC95",[1],12.5 µM
same,Escherichia coli expressing NDM-1 (CLB30016) MITC95,[2],25 µM
same,Klebsiella pneumoniae expressing VIM-1 (IHMA599644) MITC95,[3],25 µM
same,Serratia marcescens expressing IMP-1 (CL5741) MITC95,[4],6.25 µM
same,"P. aeruginosa expressing IMP-1, efflux − (MB9799) MITC95",[5],3.125 µM
"C[N+]1(C)CC(NS(=O)(=O)c2ccc(-c3cccc4[nH]c(N)nc34)c(-c3nn[nH]n3)c2S(N)(=O)=O)C1.O=C([O-])O [Example 245, 3-(4-(2-Amino-1H-benzo[d]imidazol-4-yl)-2-sulfamoyl-3-(2H-tetrazol-5-yl)phenylsulfonamido)-1,1-dimethylazetidin-1-ium hydrogencarbonate]","P. aeruginosa expressing IMP-1, efflux + (MB9798) MITC95",[1],1.563 µM
same,Escherichia coli MITC95,[2],0.7813 µM
same,Klebsiella pneumoniae MITC95,[3],3.125 µM
same,Serratia marcescens MITC95,[4],1.563 µM
same,"P. aeruginosa expressing IMP-1, efflux − (MB9799) MITC95",[5],1.563 µM
"Nc1ccc(-c2ccc(S(=O)(=O)NCCc3c[nH]cn3)c(S(N)(=O)=O)c2-c2nn[nH]n2)cn1 [Example 217, N^1-(2-(1H-imidazol-4-yl)ethyl)-4-(6-aminopyridin-3-yl)-3-(2H-tetrazol-5-yl)benzene-1,2-disulfonamide]",IC50,NDM-1,447 pM
same,"P. aeruginosa expressing IMP-1, efflux + (MB9798) MITC95",[1],12.5 µM
same,Escherichia coli expressing NDM-1 (CLB30016) MITC95,[2],0.3906 µM
same,Klebsiella pneumoniae expressing VIM-1 (IHMA599644) MITC95,[3],3.125 µM
same,Serratia marcescens expressing IMP-1 (CL5741) MITC95,[4],1.563 µM
same,"P. aeruginosa expressing IMP-1, efflux − (MB9799) MITC95",[5],1.563 µM
"N=C(N)c1nc2c(-c3ccc(S(N)(=O)=O)c(S(N)(=O)=O)c3-c3nn[nH]n3)cccc2s1 [Example 192, 4-(3,4-disulfamoyl-2-(2H-tetrazol-5-yl)phenyl)benzo[d]thiazole-2-carboximidamide]",IC50,IMP-1,699 pM
same,IC50,NDM-1,274 pM
same,"P. aeruginosa expressing IMP-1, efflux + (MB9798) MITC95",[1],1.563 µM
same,Escherichia coli expressing NDM-1 (CLB30016) MITC95,[2],1.563 µM
same,Klebsiella pneumoniae expressing VIM-1 (IHMA599644) MITC95,[3],1.563 µM
same,Serratia marcescens expressing IMP-1 (CL5741) MITC95,[4],0.7813 µM
same,"P. aeruginosa expressing IMP-1, efflux − (MB9799) MITC95",[5],0.7813 µM
Nc1ncc(-c2ccc(S(=O)(=O)N[C@@H]3CCNC3)c(S(N)(=O)=O)c2-c2nn[nH]n2)s1 [Example 284],IC50,IMP-1,411 pM
same,"P. aeruginosa expressing IMP-1, efflux + (MB9798) MITC95",[1],0.7813 µM
same,Escherichia coli MITC95,[2],1.563 µM
same,Klebsiella pneumoniae MITC95,[3],1.563 µM
same,Serratia marcescens MITC95,[4],0.7813 µM
same,"P. aeruginosa expressing IMP-1, efflux − (MB9799) MITC95",[5],0.7813 µM
"Nc1nc2c(-c3ccc(S(=O)(=O)N[C@H]4C[C@H](N)C4)c(S(N)(=O)=O)c3-c3nnn[nH]3)cccc2s1 [Example 71, 4-(2-amino-1,3-benzothiazol-4-yl)-N^1-(trans-3-aminocyclobutyl)-3-(1H-tetrazol-5-yl)benzene-1,2-disulfonamide]",IC50,NDM-1,61.2 pM
same,"P. aeruginosa expressing IMP-1, efflux + (MB9798) MITC95",[1],1.563 µM
same,Escherichia coli expressing NDM-1 (CLB30016) MITC95,[2],1.563 µM
same,Klebsiella pneumoniae expressing VIM-1 (IHMA599644) MITC95,[3],3.125 µM
same,Serratia marcescens expressing IMP-1 (CL5741) MITC95,[4],3.125 µM
same,"P. aeruginosa expressing IMP-1, efflux − (MB9799) MITC95",[5],1.563 µM
"Nc1nc2c(-c3ccc(S(=O)(=O)NCC4(N)CCOC4)c(S(N)(=O)=O)c3-c3nnn[nH]3)cccc2s1.O=CO (stereo not drawn) [Example 114, 3-((4-(2-aminobenzo[d]thiazol-4-yl)-2-sulfamoyl-3-(1H-tetrazol-5-yl)phenylsulfonamido)methyl)tetrahydrofuran-3-aminium formate]",IC50,NDM-1,64.9 pM
same,"P. aeruginosa expressing IMP-1, efflux + (MB9798) MITC95",[1],3.125 µM
same,Escherichia coli expressing NDM-1 (CLB30016) MITC95,[2],3.125 µM
same,Klebsiella pneumoniae expressing VIM-1 (IHMA599644) MITC95,[3],6.25 µM
same,Serratia marcescens expressing IMP-1 (CL5741) MITC95,[4],3.125 µM
same,"P. aeruginosa expressing IMP-1, efflux − (MB9799) MITC95",[5],3.125 µM
"CS(=O)(=O)C1CCN(S(=O)(=O)c2ccc(-c3cccc4sc(N)nc34)c(-c3nnn[nH]3)c2S(N)(=O)=O)C1 (stereo not drawn) [Example 45, 3-(2-amino-1,3-benzothiazol-4-yl)-6-{[3-(methylsulfonyl)pyrrolidin-1-yl]sulfonyl}-2-(1H-tetrazol-5-yl)benzenesulfonamide]",IC50,IMP-1,1650 pM
same,"P. aeruginosa expressing IMP-1, efflux + (MB9798) MITC95",[1],25 µM
same,Escherichia coli expressing NDM-1 (CLB30016) MITC95,[2],50 µM
same,Klebsiella pneumoniae expressing VIM-1 (IHMA599644) MITC95,[3],25 µM
same,Serratia marcescens expressing IMP-1 (CL5741) MITC95,[4],6.25 µM
same,"P. aeruginosa expressing IMP-1, efflux − (MB9799) MITC95",[5],3.125 µM
